Laboratory results from PubChem BioAssay AID256 (DTP/NCI, 2004).
Inconclusive results and toxic doses are left out.

Test system: CD2F1 mice, L1210 leukemia ip, survival T/C
Experiment: NCI In Vivo Anticancer Drug Screen. Data for tumor model L1210 Leukemia (intraperitoneal) in CD2F1 (CDF1) mice
Settings: endpoint: mean survival time, higher = longer survival
Summary of the method: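 Antitumor effect is scored in animals hosting a serially transplanted tumor. Values compare compound-dosed animals against vehicle-only controls as a simple quotient.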

[1] = dose: 100.0 mg/kg/injection, schedule: Q01DX009 (ip), vehicle: saline with Tween-80
[2] = dose: 100.0 mg/kg/injection, schedule: Q04DX003 (ip), vehicle: saline with Tween-80
[3] = dose: 200.0 mg/kg/injection, schedule: Q01DX009 (ip), vehicle: saline with Tween-80
[4] = dose: 200.0 mg/kg/injection, schedule: Q04DX003 (ip), vehicle: saline with Tween-80
[5] = dose: 400.0 mg/kg/injection, schedule: Q01DX009 (ip), vehicle: saline with Tween-80
[6] = dose: 400.0 mg/kg/injection, schedule: Q04DX003 (ip), vehicle: saline with Tween-80
[7] = dose: 75.0 mg/kg/injection, schedule: Q01DX001 (ip), vehicle: saline
[8] = dose: 150.0 mg/kg/injection, schedule: Q01DX001 (ip), vehicle: saline
[9] = dose: 50.0 mg/kg/injection, schedule: Q01DX009 (ip), vehicle: saline with Tween-80
[10] = dose: 100.0 mg/kg/injection, schedule: Q04DX002 (ip), vehicle: saline with Tween-80

SMILES: CCOC(=O)C1=C(C)NC(C)=C(C(=O)OCC)C1c1ccc(OC)cc1
- T/C [1]: 104 % of control
- T/C [2]: 97 % of control
- T/C [3]: 101 % of control
- T/C [4]: 94 % of control
- T/C [5]: 97 % of control
- T/C [6]: 92 % of control

SMILES: CCCCC/C(C)=C(\C)c1cc(OC)cc(OC)c1
- T/C [1]: 103 % of control
- T/C [3]: 106 % of control
- T/C [5]: 91 % of control

SMILES: C[N+]([O-])(C/C=C/c1ccccc1)c1ccccc1 (centres undefined)
- T/C [7]: 101 % of control
- T/C [8]: 97 % of control
- T/C (dose: 300.0 mg/kg/injection, schedule: Q01DX001 (ip), vehicle: saline): 98 % of control

SMILES: O=C(O)C(O)C(O)C(O)C(O)CO.[Mn] (centres undefined)
- T/C [9]: 106 % of control
- T/C (dose: 50.0 mg/kg/injection, schedule: Q04DX003 (ip), vehicle: saline with Tween-80): 100 % of control
- T/C [1]: 107 % of control
- T/C [2]: 102 % of control
- T/C [3]: 118 % of control
- T/C [4]: 104 % of control

SMILES: O=c1[nH]c(=O)n(O)c2nc[nH]c12
- T/C (dose: 25.0 mg/kg/injection, schedule: Q01DX009 (ip), vehicle: saline with Tween-80): 102 % of control
- T/C [9]: 98 % of control

SMILES: CC(=O)OCCN1C(=O)c2ccccc2C1=O
- T/C (dose: 100.0 mg/kg/injection, schedule: Q04DX003 (ip), vehicle: Klucel (hydroxypropylcellulose) (HPC)): 97 % of control
- T/C (dose: 200.0 mg/kg/injection, schedule: Q04DX003 (ip), vehicle: Klucel (hydroxypropylcellulose) (HPC)): 94 % of control
- T/C (dose: 400.0 mg/kg/injection, schedule: Q04DX003 (ip), vehicle: Klucel (hydroxypropylcellulose) (HPC)): 102 % of control

SMILES: O=C(Sc1ccccc1)C(CO)c1ccccc1 (centres undefined)
- T/C (dose: 25.0 mg/kg/injection, schedule: Q04DX002 (ip), vehicle: saline with Tween-80): 101 % of control
- T/C (dose: 50.0 mg/kg/injection, schedule: Q04DX002 (ip), vehicle: saline with Tween-80): 101 % of control
- T/C [10]: 97 % of control

SMILES: CCC(=O)Nc1nn[nH]n1
- T/C [10]: 105 % of control
- T/C (dose: 200.0 mg/kg/injection, schedule: Q04DX002 (ip), vehicle: saline with Tween-80): 102 % of control
- T/C (dose: 400.0 mg/kg/injection, schedule: Q04DX002 (ip), vehicle: saline with Tween-80): 94 % of control

SMILES: COc1cccc2c1C(=O)c1c(O)c3c(c(O)c1C2=O)C[C@@](O)(C(=O)COC(=O)Cc1cccc2ccccc12)C[C@@H]3OC1CC(N)C(O)C(C)O1 (some centres undefined)
- T/C (dose: 0.5 mg/kg/injection, schedule: Q01DX009 (ip), vehicle: saline with Tween-80): 118 % of control
- T/C (dose: 1.0 mg/kg/injection, schedule: Q01DX001 (ip), vehicle: other): 116 % of control
- T/C (dose: 2.5 mg/kg/injection, schedule: Q01DX001 (ip), vehicle: saline with Tween-80): 117 % of control
- T/C (dose: 5.0 mg/kg/injection, schedule: Q04DX003 (ip), vehicle: other): 152 % of control
- T/C (dose: 8.0 mg/kg/injection, schedule: Q01DX009 (ip), vehicle: saline with Tween-80): 122 % of control
- T/C (dose: 10.0 mg/kg/injection, schedule: Q04DX003 (ip), vehicle: saline with Tween-80): 151 % of control
- T/C (dose: 16.0 mg/kg/injection, schedule: Q01DX009 (ip), vehicle: saline with Tween-80): 88 % of control
- T/C (dose: 32.0 mg/kg/injection, schedule: Q01DX001 (ip), vehicle: other): 90 % of control

SMILES: Cc1nc2c(NC(=O)CCl)nn(C)c2nc1C
- T/C [2]: 98 % of control
- T/C [4]: 95 % of control

SMILES: CCCCCCCCCCNCCC(=O)O
- T/C (dose: 37.5 mg/kg/injection, schedule: Q04DX003 (ip), vehicle: saline): 97 % of control
- T/C (dose: 75.0 mg/kg/injection, schedule: Q04DX003 (ip), vehicle: saline): 94 % of control
- T/C (dose: 150.0 mg/kg/injection, schedule: Q04DX003 (ip), vehicle: saline): 97 % of control

SMILES: NCC(OCC(=O)O)C(Cl)(Cl)Cl (centres undefined)
- T/C [2]: 101 % of control
- T/C [4]: 96 % of control
- T/C [6]: 101 % of control

SMILES: CC(=O)Oc1ccc(C2NNC3(O)C(=O)N(C4CCCCC4)CC23)cc1 (centres undefined)
- T/C [2]: 90 % of control
- T/C [4]: 94 % of control
- T/C [6]: 98 % of control

SMILES: C[n+]1ccc(/C=C\Nc2ccccn2)cc1
- T/C [7]: 103 % of control
- T/C [8]: 108 % of control

SMILES: O=C1OC(c2ccccc2)CC1N1CCCCC1 (centres undefined)
- T/C (dose: 6.25 mg/kg/injection, schedule: Q01DX009 (ip), vehicle: saline sonified): 92 % of control
- T/C (dose: 12.5 mg/kg/injection, schedule: Q01DX009 (ip), vehicle: saline sonified): 101 % of control
- T/C (dose: 25.0 mg/kg/injection, schedule: Q01DX009 (ip), vehicle: saline sonified): 105 % of control

SMILES: CC1(C)CCCC2(C)CC/C(=N\NC(N)=O)C=C12 (centres undefined)
- T/C [1]: 93 % of control
- T/C [2]: 95 % of control
- T/C [3]: 89 % of control
- T/C [4]: 96 % of control
- T/C [5]: 88 % of control
- T/C [6]: 96 % of control
